Measurements from paper PMC11990524, “Design and Synthesis of Novel 6-(Substituted phenyl)-[1,3]dioxolo[4′,5′:4,5]benzo[1,2-d]thiazole Compounds as Tyrosinase Inhibitors: In Vitro and In Vivo Insights” (Molecules, 2025).

Experiments:
mushroom tyrosinase = mushroom tyrosinase (Agaricus bisporus, UniProt C7FF04); assay: Mushroom tyrosinase inhibitory activity assay (L-dopa or L-tyrosine as substrate); type: biochemical
Description: In the inhibition experiments, L-dopa and L-tyrosine were used as enzyme substrates.
The plate was incubated at 37 °C for 30 min, and absorbance of dopachrome formation was recorded spectrophotometrically at 475 nm using a VersaMax® Elisa (VE) microplate reader (Molecular Devices, San Jose, CA, USA) to determine tyrosinase inhibition activity. A VE microplate reader was used in all subsequent experiments to measure optical density. All experiments were carried out independently three times.

B16F10 cells = assay: Cellular melanin content assay using B16F10 cells; type: cell-based, murine
Description: After 72 h of incubation, the melanin content was evaluated by measuring the optical density at 405 nm.
The plate was incubated in a CO2 incubator for 1 h. Each well was treated with stimulators (α-MSH and IBMX; 1 μM and 200 μM, respectively) and incubated in a CO2 incubator for 72 h. The incubated cells were rinsed twice with PBS (pH 7.4). 1N–NaOH solution (100 μL) was added to each well and warmed at 60 °C for 1 h. The lysates were transferred to each well of a 96-well plate. The optical density was measured at 405 nm.

B16F10 cell tyrosinase = biological target: T1, B16F10 cell tyrosinase (Mus musculus, UniProt P11344); assay: In situ cellular tyrosinase activity assay using B16F10 cells; type: cell-based, murine
T1 construct: endogenous in cells; host or cells: B16F10 murine cells, stimulated with α-MSH and IBMX
T1 sequence (P11344 19-533): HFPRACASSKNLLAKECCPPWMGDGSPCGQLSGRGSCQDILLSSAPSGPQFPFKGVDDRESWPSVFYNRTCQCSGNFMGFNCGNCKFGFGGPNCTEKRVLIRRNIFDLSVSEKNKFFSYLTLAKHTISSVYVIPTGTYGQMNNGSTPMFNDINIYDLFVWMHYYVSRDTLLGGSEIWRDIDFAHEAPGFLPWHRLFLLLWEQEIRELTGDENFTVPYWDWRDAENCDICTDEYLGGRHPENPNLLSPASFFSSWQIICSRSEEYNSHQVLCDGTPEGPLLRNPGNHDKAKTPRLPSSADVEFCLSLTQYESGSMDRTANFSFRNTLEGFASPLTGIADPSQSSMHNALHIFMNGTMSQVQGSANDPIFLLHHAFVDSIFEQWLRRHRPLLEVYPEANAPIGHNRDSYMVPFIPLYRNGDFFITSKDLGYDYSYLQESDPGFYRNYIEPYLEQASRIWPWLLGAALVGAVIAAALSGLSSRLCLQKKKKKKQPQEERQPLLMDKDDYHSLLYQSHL
Description: After 72 h of incubation, the cells were treated with an excessive amount of L-dopa for 2 h, and then the melanin-stained cells were photographed, and the pigmented areas of the cells were determined using an ATTO CS Analyzer (ATTO, Tokyo, Japan).
B16F10 (3 × 10^3 cells/well) cells in a 24-well plate were incubated for 24 h in a 5% CO2 incubator maintained at 37 °C. […] Stimulators (α-MSH and IBMX; 1 μM and 200 μM, respectively) were exposed to cells 1 h after treatment with the test sample, and the cells were incubated for 72 h in a 5% CO2 incubator. The cells were fixed for 40 min using paraformaldehyde solution (4%) (Sigma-Aldrich, St. Louis, MO, USA), washed with PBS (pH 7.4), and permeabilized for 2 min using Triton X-100 (0.1%). After washing twice with PBS, each well was exposed to L-dopa solution (500 μL; 2 mM). After incubation for 2 h, images of the cells stained with excess melanin were obtained using a camera connected to a microscope (Motic, Hong Kong).

[1] = ABTS radical scavenging assay; details: 100 μM
Description: The ABTS^+ radical solution was obtained by mixing ABTS and potassium persulfate, an oxidizing reagent, and test samples (1–13 and Trolox [positive control]; final concentration: 100 μM) were added to determine their ABTS^+ radical scavenging ability by measuring the optical density at 732 nm.
To prepare ABTS^•+ stock solution, equal amounts of ABTS (14 mM aqueous solution) and K2S2O8 (4.9 mM aqueous solution) were mixed and stored in the dark at 18 °C for 15 h. The prepared ABTS^•+ solution was diluted in ethanol to adjust the absorbance to 0.7 ± 0.01 at 732 nm. The test samples (Trolox [positive control] and compounds 1–13) were dissolved in a cosolvent of ethanol and DMSO (10:1 [v/v]). The adjusted ABTS^•+ solution (90 μL) and test sample (10 μL) were added to each well of a 96-well plate, and the plate was stored in a dark place at 18 °C for 2 min. The optical density was measured at 732 nm every min for 10 min. The test sample solutions were tested at a final concentration of 100 μM. The percentage of radical scavenging activity was calculated as follows: % Radical scavenging activity = 100 × [(Absc − Abst)/Absc], where Abst and Absc are optical densities of the test sample and control, respectively.

[2] = DPPH radical scavenging assay; details: 500 μM; 30 min in the dark
Description: DPPH radical scavenging activity was determined by mixing the DPPH solution with compounds 1–13, leaving it in the dark at 20 °C for 30 min, and measuring the optical density at 517 nm. Ascorbic acid (AA) was used as a positive control to compare the scavenging activity. All test samples were used at 500 μM.
An aliquot (20 μL) of test sample (compounds 1–13 and ascorbic acid [positive control]; 5 mM) in DMSO and 180 μL DPPH solution (0.2 mM) in methanol were mixed in each well of a 96-well plate. The mixed solution was kept in the dark at 18 °C for 30 min. A VE microplate reader was used to measure the optical density of each well at 517 nm.

Chain of mushroom tyrosinase (C7FF04 2-392): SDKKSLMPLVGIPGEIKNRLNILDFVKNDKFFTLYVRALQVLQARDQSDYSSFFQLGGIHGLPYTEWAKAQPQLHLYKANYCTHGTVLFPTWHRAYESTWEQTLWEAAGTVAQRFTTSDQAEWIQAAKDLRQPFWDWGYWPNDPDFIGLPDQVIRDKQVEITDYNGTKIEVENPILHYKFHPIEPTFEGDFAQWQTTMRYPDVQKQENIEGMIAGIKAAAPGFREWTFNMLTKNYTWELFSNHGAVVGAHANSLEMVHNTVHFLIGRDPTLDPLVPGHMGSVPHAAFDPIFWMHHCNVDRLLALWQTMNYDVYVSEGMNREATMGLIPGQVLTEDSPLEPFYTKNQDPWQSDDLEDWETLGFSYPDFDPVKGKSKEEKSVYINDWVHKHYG

Oc1ccc(-c2nc3cc4c(cc3s2)OCO4)c(O)c1 [Compound 9, 4-([1,3]Dioxolo[4′,5′:4,5]benzo[1,2-d]thiazol-6-yl)benzene-1,3-diol]
IC50 values regardless of the substrate used (in words) (mushroom tyrosinase; L-dopa and L-tyrosine): nanomolar
inhibition at 2 µM (mushroom tyrosinase; substrate L-dopa, 2.0 μM, read-out: Inhibition (%) measured at 2.0 μM (converted)): 76.1%
inhibition at 0.4 µM (mushroom tyrosinase; substrate L-tyrosine, 0.4 μM, read-out: Inhibition (%) measured at 0.4 μM (converted)): 71.8%
melanin content (B16F10 cells; 1, 2, and 5 μM, IBMX 200 μM plus α-MSH 1 μM, 72 h): significantly reduced the stimulator-induced melanin contents
melanin production inhibition compared with kojic acid (B16F10 cells; same concentration (5 μM)): inhibited melanin production more potently than kojic acid
melanin production-inhibitory potency in situ, comparison (B16F10 cell tyrosinase; 5 μM): greater than that of 5
number of cells strongly stained with melanin (in situ tyrosinase) (B16F10 cell tyrosinase; 1, 2, and 5 μM, IBMX plus α-MSH, 72 h, L-dopa 2 h): evidently reduced the number of cells strongly stained with melanin
ABTS^+ radical scavenging activity (inhibition rate) [1]: 96%
DPPH radical scavenging (inhibition) [2]: 85%
